Read-outs that look alike come from different tables or passages of the source.
Target: endogenous CETP from serum (Homo sapiens (Human), UniProt P11597)
Assay: RTA assay in 95% human serum (CETP-catalyzed CE and TG transfer, endogenous CETP)
Format: biochemical
[1] = RTA assay in 95% human serum, read-out: IC50
[2] = RTA assay, 95% human serum, read-out: RTA (95% HS)

Sequence of endogenous CETP from serum (P11597 18-493 limits assumed): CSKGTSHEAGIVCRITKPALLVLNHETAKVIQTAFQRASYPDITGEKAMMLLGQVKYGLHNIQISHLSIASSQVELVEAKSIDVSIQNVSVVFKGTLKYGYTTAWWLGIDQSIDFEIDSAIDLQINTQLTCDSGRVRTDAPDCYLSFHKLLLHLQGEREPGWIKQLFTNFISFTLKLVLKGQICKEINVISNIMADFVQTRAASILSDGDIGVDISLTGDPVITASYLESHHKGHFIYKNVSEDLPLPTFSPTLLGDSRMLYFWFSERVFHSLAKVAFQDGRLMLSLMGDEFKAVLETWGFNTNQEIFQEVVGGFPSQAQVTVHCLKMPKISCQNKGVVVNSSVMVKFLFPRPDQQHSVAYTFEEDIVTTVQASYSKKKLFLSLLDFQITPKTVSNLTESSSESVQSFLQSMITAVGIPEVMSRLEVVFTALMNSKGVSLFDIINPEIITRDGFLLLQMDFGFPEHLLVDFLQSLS

SMILES	IC50 [1]	IC50 [2]
COc1ccc(-c2ccc(C(=O)O)cc2C)cc1-c1ccc(F)cc1[C@@H]1CC[C@H]2[C@@H](c3cc(C(F)(F)F)cc(C(F)(F)F)c3)OC(=O)N12 [Example 34, 2″-{(1R,5S,7aS)-1-[3,5-bis(trifluoromethyl)phenyl]-3-oxotetrahydro-1H-pyrrolo[1,2-c][1,3]oxazol-5-yl}-4″-fluoro-4′-methoxy-2-methyl-1,1′:3′,1″- terphenyl-4-carboxylic acid]	229 nM	
COC(=O)CCc1ccc(OC)c(-c2ccc(C(F)(F)F)cc2[C@@H]2CC[C@H]3[C@@H](c4cc(C(F)(F)F)cc(C(F)(F)F)c4)OC(=O)N23)c1 [Example 1, Methyl 3-[2′-{(1R,5S,7aS)-1-[3,5-bis(trifluoromethyl)phenyl]-3-oxotetrahydro-1H-pyrrolo[1,2-c][1,3]oxazol-5-yl}-6-methoxy-4′-(trifluoromethyl)biphenyl-3-yl]propanoate]		296 nM
O=C1O[C@H](c2cc(C(F)(F)F)cc(C(F)(F)F)c2)[C@@H]2CC[C@@H](c3cc(C(F)(F)F)ccc3C3=CCCCC3)N12 [Example 17, (1R,5S,7aS)-1-[3,5-bis(trifluoromethyl)phenyl]-5-[2-cyclohex-1-en-1-yl-5-(trifluoromethyl)phenyl]tetrahydro-1H-pyrrolo[1,2-c][1,3]oxazol-3-one]	73.6 nM	
COc1ccc(C)cc1-c1ccc(C(F)(F)F)cc1[C@@H]1CC[C@H]2[C@@H](c3cc(C(F)(F)F)cc(C(F)(F)F)c3)OC(=O)N12 [Example 13, (1R,5S,7aS)-1-[3,5-bis(trifluoromethyl)phenyl]-5-[2′-methoxy-5′-methyl-4-(trifluoromethyl)biphenyl-2-yl]tetrahydro-1H-pyrrolo[1,2-c][1,3]oxazol-3-one]	263 nM	
COc1ccc(CCc2nnc(N)o2)cc1-c1ccc(C(F)(F)F)cc1[C@@H]1CCC[C@H]2[C@@H](c3cc(C(F)(F)F)cc(C(F)(F)F)c3)OC(=O)N12 [Example 82, (1R,5S,8aS)-5-{5′-[2-(5-amino-1,3,4-oxadiazol-2-yl)ethyl]-2′-methoxy-4-(trifluoromethyl)biphenyl-2-yl}-1-[3,5-bis(trifluoromethyl)phenyl]hexahydro[1,3]oxazolo[3,4-a]pyridin-3-one]		1320 nM
COc1ncccc1-c1ccc(C(F)(F)F)cc1[C@@H]1CC[C@H]2[C@@H](c3cc(C(F)(F)F)cc(C(F)(F)F)c3)OC(=O)N12 [Example 21, (1R,5S,7aS)-1-[3,5-bis(trifluoromethyl)phenyl]-5-[2-(2-methoxypyridin-3-yl)-5-(trifluoromethyl)phenyl]tetrahydro-1H-pyrrolo[1,2-c][1,3]oxazol-3-one]	316 nM	
COc1cc(F)c(-c2ccc(C(=O)O)cc2C)cc1-c1ccc(C(F)(F)F)cc1[C@@H]1CCC[C@H]2[C@@H](c3cc(C(F)(F)F)cc(C(F)(F)F)c3)OC(=O)N12 [Example 44, 2″-{(1R,5S,8aS)-1-[3,5-bis(trifluoromethyl)phenyl]-3-oxohexahydro[1,3]oxazolo[3,4-a]pyridin-5-yl}-6′-fluoro-4′-methoxy-2-methyl-4″- (trifluoromethyl)-1,1′:3′,1″- terphenyl-4-carboxylic acid]	718 nM	
COc1cc(F)c(C(C)C)cc1-c1cnc(N(C)C)cc1[C@@H]1C=C[C@H]2[C@@H](c3cc(C(F)(F)F)cc(C(F)(F)F)c3)OC(=O)N12 [Example 49, (1R,5S,7aS)-1-[3,5-bis(trifluoromethyl)phenyl]-5-{2-(dimethylamino)-5-[4-fluoro-2-methoxy-5-(1-methylethyl)phenyl]pyridin-4-yl}-5,7a-dihydro-1H-pyrrolo[1,2-c][1,3]oxazol-3-one]	438 nM	
COc1ccc(C#N)cc1-c1ccc(C(F)(F)F)cc1[C@@H]1CC[C@H]2[C@@H](c3cc(C(F)(F)F)cc(C(F)(F)F)c3)OC(=O)N12 [Example 9, 2′-{(1R,5S,7aS)-1-[3,5-bis(trifluoromethyl)phenyl]-3-oxotetrahydro-1H-pyrrolo[1,2-c][1,3]oxazol-5-yl}-6-methoxy-4′-(trifluoromethyl)biphenyl-3-carbonitrile]	224 nM	
Cc1ccc(Cl)cc1-c1ccc(C(F)(F)F)cc1[C@@H]1CC[C@H]2[C@@H](c3cc(C(F)(F)F)cc(C(F)(F)F)c3)OC(=O)N12 [Example 26, (1R,5S,7aS)-1-[3,5-bis(trifluoromethyl)phenyl]-5-[5′-chloro-2′-methyl-4-(trifluoromethyl)biphenyl-2-yl]tetrahydro-1H-pyrrolo[1,2-c][1,3]oxazol-3-one]	1220 nM	
Cc1cocc1-c1ccc(C(F)(F)F)cc1[C@@H]1CC[C@H]2[C@@H](c3cc(C(F)(F)F)cc(C(F)(F)F)c3)OC(=O)N12 [Example 16, (1R,5S,7aS)-1-[3,5-bis(trifluoromethyl)phenyl]-5-[2-(4-methylfuran-3-yl)-5-(trifluoromethyl)phenyl]tetrahydro-1H-pyrrolo[1,2-c][1,3]oxazol-3-one]	343 nM	
COc1ncc(-c2ccc(C(=O)O)cc2C)cc1-c1ncc(C(F)(F)F)cc1[C@@H]1C=C[C@H]2[C@@H](c3cc(C(F)(F)F)cc(C(F)(F)F)c3)OC(=O)N12 [Example 69, 4-(3-((1R,5S,7aS)-1-(3,5-bis(trifluoromethyl)phenyl)-3-oxo-1,3,5,7a-tetrahydropyrrolo[1,2-c]oxazol-5-yl)-2′-methoxy-5-(trifluoromethyl)-[2,3′-bipyridin]-5′-yl)-3-methylbenzoic acid]	456 nM	
COc1ccc(-c2ccc(C(=O)O)cc2C)cc1-c1ccc(N(C)C)nc1[C@@H]1C=C[C@H]2[C@@H](c3cc(C(F)(F)F)cc(C(F)(F)F)c3)OC(=O)N12 [Example 47, 3′-[2-{(1R,5S,7aS)-1-[3,5-bis(trifluoromethyl)phenyl]-3-oxo-5,7a-dihydro-1H-pyrrolo[1,2-c][1,3]oxazol-5-yl}-6-(dimethylamino)pyridin-3-yl]-4′-methoxy-2-methylbiphenyl-4-carboxylic acid]	491 nM	
COc1ccc(F)cc1-c1ccc(C(F)(F)F)cc1[C@@H]1CC[C@H]2[C@@H](c3cc(C(F)(F)F)cc(C(F)(F)F)c3)OC(=O)N12 [Example 19, (1R,5S,7aS)-1-[3,5-bis(trifluoromethyl)phenyl]-5-[5′-fluoro-2′-methoxy-4-(trifluoromethyl)biphenyl-2-yl]tetrahydro-1H-pyrrolo[1,2-c][1,3]oxazol-3-one]	166 nM	
COc1cc(F)c(-c2ccc(C(=O)O)cc2C)cc1-c1cnc(C(F)(F)F)cc1[C@@H]1CC[C@H]2[C@@H](c3cc(C(F)(F)F)cc(C(F)(F)F)c3)OC(=O)N12 [Example 53, 5′-[4-{(1R,5S,7aS)-1-[3,5-bis(trifluoromethyl)phenyl]-3-oxotetrahydro-1H-pyrrolo[1,2-c][1,3]oxazol-5-yl}-6-(trifluoromethyl)pyridin-3-yl]-2′-fluoro-4′-methoxy-2-methylbiphenyl-4-carboxylic acid]	191 nM	
Cc1cscc1-c1ccc(C(F)(F)F)cc1[C@@H]1CC[C@H]2[C@@H](c3cc(C(F)(F)F)cc(C(F)(F)F)c3)OC(=O)N12 [Example 24, (1R,5S,7aS)-1-[3,5-bis(trifluoromethyl)phenyl]-5-[2-(4-methylthiophen-3-yl)-5-(trifluoromethyl)phenyl]tetrahydro-1H-pyrrolo[1,2-c][1,3]oxazol-3-one]	122 nM	
COc1cc(F)c(-c2ccc(C(=O)O)cc2C)cc1-c1ccc(C(F)(F)F)cc1[C@@H]1C=C[C@H]2[C@@H](c3cc(C(F)(F)F)cc(C(F)(F)F)c3)OC(=O)N12 [Example 50, 2″-{(1R,5S,7aS)-1-[3,5-bis(trifluoromethyl)phenyl]-3-oxo-5,7a-dihydro-1H-pyrrolo[1,2-c][1,3]oxazol-5-yl}-6′-fluoro-4′-methoxy-2-methyl-4″- (trifluoromethyl)-1,1′:3′,1″- terphenyl-4-carboxylic acid]	47.9 nM	
COc1ccc(-c2cnc(C(=O)O)cc2C)cc1-c1ccc(F)cc1[C@@H]1CC[C@H]2[C@@H](c3cc(C(F)(F)F)cc(C(F)(F)F)c3)OC(=O)N12 [Example 38, 5-(2′-{(1R,5S,7aS)-1-[3,5-bis(trifluoromethyl)phenyl}-3-oxotetrahydro-1H-pyrrolo[1,2-c][1,3]oxazol-5-yl}-4′-fluoro-6-methxoybiphenyl-3-yl)-4-methylpyridine-2-carboxylic acid]	1740 nM	
COc1ccc(CCc2n[nH]c(=O)o2)cc1-c1ccc(C(F)(F)F)cc1[C@@H]1CCC[C@H]2[C@@H](c3cc(C(F)(F)F)cc(C(F)(F)F)c3)OC(=O)N12 [Example 80, (1R,5S,8aS)-1-[3,5-bis(trifluoromethyl)phenyl]-5-{2′-methoxy-5′-[2-(5-oxo-4,5-dihydro-1,3,4-oxadiazol-2-yl)ethyl]-4-(trifluoromethyl)biphenyl-2-yl}hexahydro[1,3]oxazolo[3,4-a]pyridin-3-one]		942 nM
COc1ncc(Cl)cc1-c1ccc(C(F)(F)F)cc1[C@@H]1CC[C@H]2[C@@H](c3cc(C(F)(F)F)cc(C(F)(F)F)c3)OC(=O)N12 [Example 11, (1R,5S,7aS)-1-[3,5-bis(trifluoromethyl)phenyl]-5-[2-(5-chloro-2-methoxypyridin-3-yl)-5-(trifluoromethyl)phenyl]tetrahydro-1H-pyrrolo[1,2-c][1,3]oxazol-3-one]	294 nM	
COc1ncc(-c2ccc(C(=O)O)cc2C)cc1-c1ccc(C(F)(F)F)cc1[C@@H]1C=C[C@H]2[C@@H](c3cc(C(F)(F)F)cc(C(F)(F)F)c3)OC(=O)N12 [Example 67, 4-(5-(2-((1R,5S,7aS)-1-(3,5-bis(trifluoromethyl)phenyl)-3-oxo-1,3,5,7a-tetrahydropyrrolo[1,2-c]oxazol-5-yl)-4-(trifluoromethyl)phenyl)-6-methoxypyridin-3-yl)-3-methylbenzoic acid]	199 nM	
COC(=O)c1ccc(-c2cc(-c3ccc(C(F)(F)F)cc3[C@@H]3CC[C@H]4[C@@H](c5cc(C(F)(F)F)cc(C(F)(F)F)c5)OC(=O)N34)c(OC)cc2F)c(C)c1 [Example 6, methyl 2″-{(1R,5S,7aS)-1-[3,5-bis(trifluoromethyl)phenyl]-3-oxotetrahydro-1H-pyrrolo[1,2-c][1,3]oxazol-5-yl}-6′-fluoro-4′-methoxy-2-methyl-4″- (trifluoromethyl)-1,1′:3′,1″- terphenyl-4-carboxylate]	641 nM	
